Experimental data from US10150737B2, “Compounds for controlling arthropods” (priority 2013, dated 2018).

Legend:
Boophilus microplus = Boophilus microplus - injection test; assay type: in vivo; details: application rate 20 μg/animal, injection into engorged adult female ticks, after 7 days; for pest or weed control at 0.02 mg: Rhipicephalus microplus, 168 h, read-out: efficacy (laying of fertile eggs)
Procedure: (§1) Solvent: dimethyl sulphoxide
To produce an appropriate active ingredient formulation, 10 mg of active ingredient are mixed with 0.5 ml of solvent and the concentrate is diluted with solvent to the desired concentration.
1 μl of the active ingredient solution is injected into the abdomen of 5 engorged adult female cattle ticks (Boophilus microplus). The animals are transferred into dishes and kept in a climate-controlled room.
Efficacy is assessed after 7 days by laying of fertile eggs. Eggs which are not visibly fertile are stored in a climate-controlled cabinet until the larvae hatch after about 42 days. An efficacy of 100% means that none of the ticks has laid any fertile eggs; 0% means that all the eggs are fertile.

Phaedon cochleariae = Phaedon cochleariae - spray test; assay type: in vivo; details: larvae on Chinese cabbage leaf discs, after 7 days
Procedure: (§2) Solvent: 78.0 parts by weight of acetone and 1.5 parts by weight of dimethylformamide
(§3) Emulsifier: alkylaryl polyglycol ether
(§4) To produce an appropriate active ingredient formulation, 1 part by weight of active ingredient is dissolved using the specified parts by weight of solvent and made up with water containing an emulsifier concentration of 1000 ppm until the desired concentration is attained. To produce further test concentrations, the preparation is diluted with emulsifier-containing water.
Discs of Chinese cabbage leaves (Brassica pekinensis) are sprayed with an active ingredient formulation of the desired concentration and, after drying, populated with larvae of the mustard beetle (Phaedon cochleariae).
After 7 days, efficacy in % is determined. 100% means that all the beetle larvae have been killed; 0% means that no beetle larvae have been killed.

Spodoptera frugiperda = Spodoptera frugiperda - spray test; assay type: in vivo; details: caterpillars on maize leaf discs, after 7 days
Procedure: as §2, §3, §4
Leaf discs of maize (Zea mays) are sprayed with an active ingredient formulation of the desired concentration and, after drying, populated with caterpillars of the armyworm (Spodoptera frugiperda).
After 7 days, efficacy in % is determined. 100% means that all the caterpillars have been killed; 0% means that no caterpillars have been killed.

[1] = logP determination by HPLC on a reversed-phase column (C18); assay type: physicochemical; details: for logP^a): HPLC-MS method a); for log P: HPLC-MS; for logP: HPLC, C18 reversed phase, acetonitrile/water with formic acid, EEC Directive 79/831 Annex V.A8
Ctenocephalides felis = Ctenocephalides felis - oral test; assay type: in vivo; details: application rate 100 ppm in citrated cattle blood; after 2 days
Procedure: as §1
For the purpose of producing an appropriate active ingredient formulation, 10 mg of active ingredient are mixed with 0.5 ml of dimethyl sulphoxide. Dilution with citrated cattle blood gives the desired concentration.
About 20 unfed adult cat fleas (Ctenocephalides felis) are placed into a chamber which is closed at the top and bottom with gauze. A metal cylinder whose bottom end is closed with parafilm is placed onto the chamber. The cylinder contains the blood/active ingredient preparation, which can be imbibed by the fleas through the parafilm membrane.
After 2 days, the kill in % is determined. 100% means that all of the fleas have been killed; 0% means that none of the fleas have been killed.

Tetranychus urticae = Tetranychus urticae - spray test, OP-resistant; assay type: in vivo; details: bean leaf discs, after 6 days
Procedure: as §2, §3, §4
Discs of bean leaves (Phaseolus vulgaris) infested by all stages of the greenhouse red spider mite (Tetranychus urticae) are sprayed with an active ingredient formulation of the desired concentration.
After 6 days, efficacy in % is determined. 100% means that all the spider mites have been killed; 0% means that none of the spider mites have been killed.

[2] = reversed-phase column (C18), Table I-T3

SMILES	efficacy (Phaedon cochleariae; application rate 100 g/ha) [%]	efficacy (Spodoptera frugiperda; application rate 100 g/ha) [%]	log P [1, 2]	efficacy (Tetranychus urticae; application rate 100 g/ha) [%]	further results
Cc1cc(C(F)(C(F)(F)F)C(F)(F)F)cc(C)c1-c1ccn(-c2ccc(Cl)c(C(=O)NC3CC3)c2)n1 [I-T2-1, 2-chloro-N-cyclopropyl-5-[3-[2,6-dimethyl-4-[1,2,2,2-tetrafluoro-1-(trifluoromethyl)ethyl]phenyl]pyrazol-1-yl]benzamide]	–	–	–	–	pest or weed control at 0.02 mg (Boophilus microplus): 100%
Cc1cc(C(F)(C(F)(F)F)C(F)(F)F)cc(C)c1-c1ccn(-c2ccc(Cl)c(C(=O)NC3(C#N)CC3)c2)n1 [I-T2-2]	100	100	–	–	efficacy (laying of fertile eggs) (Boophilus microplus): 100%; logP^a) [1]: 4.8
Cc1cc(C(F)(C(F)(F)F)C(F)(F)F)cc(C)c1-n1cc(-c2cc(C(=O)NC3CC3)c(F)cc2Cl)cn1 [I-T3-11]	–	–	–	–	efficacy (laying of fertile eggs) (Boophilus microplus): 100%; efficacy (kill) (Ctenocephalides felis): 95%; logP^a) [1]: 4.9; logP^a) [1, 2]: 4.9
Cc1ccc(C(=O)NC2CC2)cc1-c1cnn(-c2c(C)cc(C(F)(C(F)(F)F)C(F)(F)F)cc2C)c1 [I-T3-16]	–	–	–	–	efficacy (kill) (Ctenocephalides felis): 80%; logP^a) [1]: 4.4; logP^a) [1, 2]: 4.4
Cc1cc(C(F)(C(F)(F)F)C(F)(F)F)cc(C)c1-n1cc(-c2cc(C(=O)NC3(C#N)CC3)ccc2F)cn1 [I-T3-19]	–	–	–	–	efficacy (Phaedon cochleariae; application rate 500 g/ha): 100%; efficacy (laying of fertile eggs) (Boophilus microplus): 100%; efficacy (kill) (Ctenocephalides felis): 95%; efficacy (Spodoptera frugiperda; application rate 500 g/ha): 100%; logP^a) [1]: 4.3; logP^a) [1, 2]: 4.3
N#CC1(NC(=O)c2cccc(-c3cnn(-c4c(Cl)cc(C(F)(C(F)(F)F)C(F)(F)F)cc4Cl)c3)c2F)CC1 [I-T3-22]	–	–	–	–	efficacy (Phaedon cochleariae; application rate 500 g/ha): 100%; efficacy (Tetranychus urticae; application rate 500 g/ha): 100%; efficacy (Spodoptera frugiperda; application rate 500 g/ha): 100%; logP^a) [1]: 4.1; logP^a) [1, 2]: 4.1
COc1cc(C(F)(F)F)cc(F)c1-n1cc(-c2ccc(Cl)c(C(=O)NC3CC3)c2)cn1 [I-T3-50, 2-chloro-N-cyclopropyl-5-[1-[2-fluoro-6-methoxy-4-(trifluoromethyl)phenyl]pyrazol-4-yl]benzamide]	–	–	–	–	pest or weed control at 0.02 mg (Boophilus microplus): 100%
O=C(NC1CC1)c1cc(-c2cnn(-c3c(Cl)cc(C(F)(C(F)(F)F)C(F)(F)F)cc3Cl)c2)cnc1N1CCCC1 [I-T3-135]	–	–	4.3	–	efficacy (kill) (Ctenocephalides felis): 100%; logP^a) ([1]; reversed-phase column (C18)): 4.3
Cc1cc(C(F)(C(F)(F)F)C(F)(F)F)cc(C)c1-n1cc(-c2cnc(C3CC3)c(C(=O)N(C)C3CC3)c2)cn1 [I-T3-142]	–	–	4.6	–	efficacy (laying of fertile eggs) (Boophilus microplus): 100%; logP^a) ([1]; reversed-phase column (C18)): 4.6
O=C(NC1CC1)c1cc(-c2cnn(-c3ncc(C(F)(C(F)(F)F)C(F)(F)F)cc3Cl)c2)ccc1Cl [I-T3-152]	100	100	4.1	–	logP^a) ([1]; reversed-phase column (C18)): 4.1
N#CC1(NC(=O)c2cc(-c3cnn(-c4c(Cl)cc(C(F)(F)F)cc4[N+](=O)[O-])c3)ccc2Cl)CC1 [I-T3-169]	100	83	3.2	100	–
CCSc1cc(C(F)(F)F)cc(Cl)c1-n1cc(-c2ccc(Cl)c(C(=O)NC3CC3)c2)cn1 [I-T3-172]	100	–	3.9	90	–
CCSc1cc(C(F)(F)F)cc(C#N)c1-n1cc(-c2ccc(Cl)c(C(=O)NC3(C#N)CC3)c2)cn1 [I-T3-177]	100	83	3.4	100	–
CCS(=O)(=O)c1cc(C(F)(F)F)cc(Cl)c1-n1cc(-c2ccc(Cl)c(C(=O)NC3CC3)c2)cn1 [I-T3-178]	100	–	3.2	100	–
CCS(=O)(=O)c1cc(C(F)(F)F)cc(C#N)c1-n1cc(-c2ccc(Cl)c(C(=O)NC3CC3)c2)cn1 [I-T3-180]	100	–	2.8	100	–
CC[S+]([O-])c1cc(C(F)(F)F)cc(C#N)c1-n1cc(-c2ccc(Cl)c(C(=O)NC3CC3)c2)cn1 (centres unmarked) [I-T3-181]	100	–	2.7	100	–
CCS(=O)(=O)c1cc(C(F)(F)F)cc(Cl)c1-n1cc(-c2ccc(Cl)c(C(=O)NC3(C#N)CC3)c2)cn1 [I-T3-183]	100	–	3.1	100	–
CCS(=O)(=O)c1cc(C(F)(F)F)cc(C#N)c1-n1cc(-c2ccc(Cl)c(C(=O)NC3(C#N)CC3)c2)cn1 [I-T3-190]	100	–	2.9	100	–
CCSc1cc(C(F)(C(F)(F)F)C(F)(F)F)cc(SCC)c1-n1cc(-c2ccc(Cl)c(C(=O)NC3(C#N)CC3)c2)cn1 [I-T3-191]	100	100	4.7	–	–
CCSc1cc(C(F)(C(F)(F)F)C(F)(F)F)cc(Cl)c1-n1cc(-c2ccc(Cl)c(C(=O)NC3(C#N)CC3)c2)cn1 [I-T3-192]	100	100	4.5	100	–
CC[S+]([O-])c1cc(C(F)(C(F)(F)F)C(F)(F)F)cc(Cl)c1-n1cc(-c2ccc(Cl)c(C(=O)NC3(C#N)CC3)c2)cn1 (centres unmarked) [I-T3-195]	100	–	3.8	90	–
Cc1cc(C(F)(C(F)(F)F)C(F)(F)F)cc(C(F)(F)F)c1-n1cc(-c2cnc(Cl)c(C(=O)NCC3(C#N)CC3)c2)cn1 [I-T3-197]	100	100	4.0	100	–
CCS(=O)(=O)c1cc(C(F)(C(F)(F)F)C(F)(F)F)cc(S(=O)(=O)CC)c1-n1cc(-c2ccc(Cl)c(C(=O)NC3(C#N)CC3)c2)cn1 [I-T3-198]	100	100	3.7	–	–
O=C(NC1CC1)c1cc(-c2cnn(-c3c(Cl)cc(C(O)(C(F)(F)F)C(F)(F)F)cc3Cl)c2)cnc1Cl [I-T3-221]	100	–	3.0	100	–
N#CC1(NC(=O)c2cc(-c3cnn(-c4c(Cl)cc(C(O)(C(F)(F)F)C(F)(F)F)cc4Cl)c3)cnc2Cl)CC1 [I-T3-222]	100	–	3.0	100	–
CN(C(=O)c1cc(-c2cnn(-c3c(Cl)cc(C(O)(C(F)(F)F)C(F)(F)F)cc3Cl)c2)cnc1Cl)C1(C#N)CC1 [I-T3-223]	100	–	3.3	100	–
CN(C(=O)c1cc(-c2ccn(-c3c(Cl)cc(C(F)(C(F)(F)F)C(F)(F)F)cc3Cl)c2)cnc1Cl)C1CC1 [I-T46-3]	100	100	–	–	logP [1]: 5.0
O=C(NC1CC1)c1cc(-c2ccn(-c3c(Cl)cc(C(F)(C(F)(F)F)C(F)(F)F)cc3Cl)c2)cnc1Cl [I-T46-4]	100	100	–	100	logP [1]: 4.5
N#CC1(NC(=O)c2cc(-c3ccn(-c4c(Cl)cc(C(F)(C(F)(F)F)C(F)(F)F)cc4Cl)c3)cnc2Cl)CC1 [I-T46-5]	100	100	–	100	logP [1]: 4.4
CN(C(=O)c1cc(-c2ccn(-c3c(Cl)cc(C(F)(C(F)(F)F)C(F)(F)F)cc3Cl)c2)cnc1Cl)C1(C#N)CC1 [I-T46-6]	100	100	–	100	logP [1]: 4.8
